“And” between values parts separate entries of the source, which are not always exact repeats. Equal values may be shown once. The source made the active and inactive calls.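 The calls were made as follows: active = compounds giving half or more protection of infected cells from virus-caused growth loss, again on retest; inactive = the rest.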
System: CEM cells HIV-1 protection, formazan growth assay
Test: NCI AIDS Antiviral Assay
Conditions: for IC50: measured here: growth of uninfected CEM cells
How it was run: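 Human CEM cells, uninfected and HIV-1-infected, exposed to five drug concentrations; growth measured by soluble formazan assay and scored as percent protection from infection, with protecting compounds retested.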

| Structure (SMILES) | EC50 [µM] | IC50 | outcome |
| --- | --- | --- | --- |
| CC(/C=N/NC1=NCCCCN1)=N\NC1=NCCCCN1 | > 200 | 120 µM |  |
| Cc1cccc2c1C/C(=C\c1cccc(C)c1C(=O)O)C2=O |  |  | inactive |
| CC1(C)C(c2ccccc2)=[N+]([O-])C(C)(C)N1O | > 200 | 170 µM |  |
| CN(C)CCCSCC(COc1nccc(-c2ccc(-c3ccc(-c4ccnc(OCC(CSCCCN(C)C)SCCCN(C)C)n4)s3)s2)n1)SCCCN(C)C (stereo unspecified) | > 4.27 | 2.69 µM |  |
| O=C(Nc1ccc([N+](=O)[O-])cc1)N(c1ccccn1)c1ccccn1 | > 200 | 151 µM |  |
| O=[N+]([O-])c1cc([As](=O)(O)O)ccc1Cl | > 200 | > 200 µM |  |
| CC(C)N1CC2CN(Cc3ccccc3)CC(C1)C2=O | > 479 | > 479 µM |  |
| CCOC(=O)N1CCN(P(=O)(Nc2ccc3nc(NC(=O)OC)[nH]c3c2)Oc2ccccc2)CC1 (stereo unspecified) | > 135 | 53.7 µM |  |
| S=c1[nH]n2c(CCCCCCCCc3nnc4sc(=S)[nH]n34)nnc2s1 | 123 | 178 µM |  |
| COc1cc(OC)c2c(C)cc(=O)oc2c1 | > 200 | > 200 µM |  |
| Nc1ncc(/C=N/O)c(NCC2(CO)CC(CCc3ccccc3)C2)n1 (stereo unspecified) | > 2 | 0.603 µM |  |
| Cc1cc2nc(C=C(C(F)(F)F)C(F)(F)F)sc2cc1C | > 20 | 3.63 µM |  |
| CCCOC(=O)C(C)(C)C(OP(OCCC)OCCC)=C(C)C | > 200 | > 200 µM |  |
| COC(=O)c1ccc2c(c1)CC1(C2)Cc2ccccc2C1=O (stereo unspecified) | > 200 | 28.2 µM |  |
| CCOP(=O)(OCC)c1cc2cc(O)ccc2oc1=O | > 200 | > 200 µM |  |
| OC12CCC3(O)c4ccccc4C3C1c1ccccc12 (stereo unspecified) | > 200 | > 200 µM |  |
| CCCCCCSc1nc(COC(=O)NC)c(COC(=O)NC)n1C | > 200 | > 200 µM |  |
| CCC(=O)[O][Bi]([c]1ccccc1)[c]1ccccc1 | > 30.9 | 5.89 µM |  |

| Structure (SMILES) | EC50 [µM] | IC50 | outcome |
| --- | --- | --- | --- |
| CCOC(=O)c1c(-c2ccc(O)c(OC)c2)c(C#N)c(=S)n(C2OC(COC(C)=O)C(OC(C)=O)C(OC(C)=O)C2OC(C)=O)c1-c1ccccc1 (stereo unspecified) | > 200 | 91.2 µM and 64.6 µM |  |
| Cc1nn(C(=O)c2ccncc2)c2c1C(c1ccccc1O)SC(N)=N2 (stereo unspecified) | 85.1 | 148 µM |  |
| C/C(=N\NC(=S)NNC(=S)N(C)c1ccccc1)c1ccccn1 | > 52.5 | 0.427 µM |  |
| CCOC(=O)C(NC(=O)NCc1ccc(F)cc1)C(F)(F)F (stereo unspecified) | > 200 | 81.3 µM |  |
| C=C1[C@H]2CCC3(CC[C@H]4C5(CCC[C@@]4(C)C(=O)N(CCO)C5)[C@@H]3C2)[C@@H]1O |  |  | inactive |
| COc1cc2cccc(N=Cc3ccccc3Cl)c2cc1OC | > 30.9 | > 30.9 µM |  |
| CCCC[P+](CCCC)(CCCC)C(C(=O)OC)C(C(=O)OC)=C1SC(C(=O)OC)=C(C(=O)OC)S1 (stereo unspecified) | > 200 | > 200 µM |  |
| COC(=O)C1=C(C(=O)OC)C23C=CC=CC24C(C(=O)OC)=C(C(=O)OC)C4C1C3 (stereo unspecified) | > 447 | 155 µM |  |
| NC(=O)Cn1c(=O)oc2cc(C(=O)CN3CCOCC3)ccc21 | > 200 | > 200 µM |  |
| CC1=CC(C)(C)NC(=S)N1c1ccccc1O |  |  | inactive |
| CSC1=C(C#N)C(c2ccccc2)CC(=O)N1 (stereo unspecified) | > 200 | > 200 µM |  |
| COC(=O)C(CC1=C(O)Nc2ccccc2N1)/C(=N/NC(N)=O)C(=O)Nc1ccccc1C (stereo unspecified) |  |  | inactive |
| CCN(CC)Cc1cc2[nH]c3c4ccc(Cl)cc4ncc3c2cc1OC (tested in a mixture with another compound) | > 100 | 0.457 µM |  |
| Cc1[nH]nc2c1NC(=O)OCC2 | > 550 | > 550 µM |  |
| Cc1cc(C)c(S(=O)(=O)N(CCCCCN)OCCCN)c(C)c1 | > 200 | 30.2 µM |  |
| N#Cc1[nH]c(=O)n(-c2ccccc2)c1N | > 200 | > 200 µM |  |
| COc1cc2c(c(OC)c1OC)C(=O)[C@H](Br)[C@H]2NC(=O)NCCCl | > 200 | 32.4 µM |  |

Source: PubChem BioAssay AID179 (DTP/NCI, 2004)
